According to patent US6759430B2, “Piperidine and pyrrolidine derivatives comprising a nitric oxide donor for treating stress” (OxoN Medica Inc., priority 1998, dated 2004):

Assays:
[1] = in vivo induction of tolerance, subcutaneous dosing; design: species or system rat; conditions: subcutaneously 30 mg/kg t.i.d for three consecutive days
rat aortic rings (RARs) [2] = assay: in vitro induction of tolerance in rat aortic rings; assay type: cell-based; conditions: for tolerance induction in vitro: RARs pre-exposed to 0.44 mM of the drug for 1 hr; for vaso-relaxant effect on rings before and after exposure to GTN: rings exposed to 0.44 mM GTN for 1 hr, FIGS. 4 and 5; for vaso-relaxant potency, control versus NO-TEMPO-pre-treated RARs: rings exposed to 0.44 mM NO-TEMPO, FIGS. 7 and 8
Protocol: (§1) Materials: Male Sprague-Dawley rats (250-300 g) were purchased from the Animal Care Facility of the Hebrew University and used in the rat aortic rings (RARs) relaxation studies in vitro and the blood pressure monitoring and cGMP studies in vivo.
In vitro induction of GTN tolerance: Aortic rings were treated as for the control studies except that rings were exposed to 0.44 mM GTN for 1 hr. At the end of the tolerance induction period, rings were washed every 15 min for the following hour. Attempted induction of tolerance to NO-TEMPO was performed under the same conditions as for GTN with rings exposed to 0.44 mM solution of NO-TEMPO. CCRC were constructed for NO-TEMPO and GTN. […] This conclusion is further supported by separately evaluating the vaso-relaxant effect of each drug on control and NO-TEMPO-pre-treated RARs.

[3] = in vivo blood pressure (mean arterial pressure) monitoring in anesthetized rats; design: species or system rat
Protocol: as §1
In the in vivo experiment, rats were anesthetized with an intraperitoneal injection of a combination of ketamine and xylazine (50 and 10 mg per kg, respectively). A catheter was placed in the right external jugular vein and introduced to the level of right atrium. A second arterial catheter was placed in the left carotid artery and introduced to the level of the ascending aorta. The tip of arterial catheter was connected to a pressure transducer which is connected to another electrical transducer connected to a computerized Experimetria system. Blood-pressure (mean arterial pressure=MAP) was recorded before (basal) and after drug administration. NO-TEMPO was injected through the venous catheter and induced a significant drop in MAP which lasts for 5 to 10 minutes. Values for basal MAP were 130±15 before and 60±10 mm Hg following a 1 mg injection of NO-TEMPO.

[4] = tested on: cGMP content in aortic tissue; assay: vascular cGMP content after in vivo administration (RIA); design: species or system rat; conditions: for effect on vascular cGMP compared to GTN: intravenously in equimolar doses
Protocol: as §1
Experiments were performed in anaesthetized rats as above. Following i.v. administration of NO-TEMPO (0.1, 0.2, 0.5 mg etc.,) the thorax was opened and the aorta removed immediately (within thirty seconds from the administration). After standard processing procedures, cGMP content in the vascular tissue was measured by Radioimmunoassay (RIA) using commercially available kits (i.e., Kit 500 TRK from Amersham).

[5] = superoxide scavenging activity in vitro (photometric microassay, xanthine oxidase/hypoxanthine, ferricytochrome c reduction); assay type: biochemical; conditions: inhibition of ferricytochrome c reduction; 0.003-3 mM tested; n=5
Protocol: Assessment of superoxide scavenging activity in vitro
The superoxide scavenging activity of TEMPO-4-mononitrate (0.003-3 mM) and reference compound superoxide dismutase (SOD, 200 U/ml), were determined using a photometric microassay in vitro (Laight et al., Environ. J. Toxicol. Pharmracol., 3, 65-68, 1997) developed from the assay of McCord & Fridovich (J. Biol. Chem., 244, 6059-55, 1969). The assay mixture consisted of (final concentration): 50 μl ferricytochrome c (100 μM); 10 μl xanthine oxidase (20 mU/ml); 20 μl hypoxanthine (100 μM); and 20 μl sample dissolved in isotonic phosphate (10 mM)-buffered saline (PBS, pH 7.4) to make a total volume of 100 μl in a 96-well plate. The reaction was conducted at room temperature and initiated by the addition of hypoxanthine. The increase in optical density (OD) at […] was measured over a 3 min period of 30 s intervals and initial reaction rates determined at least in triplicate.
There was a linear relationship between the initial reaction rate and the concentration of xanthine oxidase (5-20 mU/ml) (r=0.9982, P<0.002, n=4). […] Xanthine oxidase at 20 mU/rml, which provided an initial reaction rate of 28.3±1.7 mOD/min (n=4), was adopted for subsequent inhibition studies (see McCord & Fridovich, 1969). The initial reaction rate was depressed by SOD (200 U/ml) by 95.3±1.1% (n=4, P<0.01) and by TEMPO-4-mononitrate (see FIG. 1).

rat aortic rings (RARs) [6] = assay: in vitro vasorelaxation of epinephrine-contracted rat aortic rings; assay type: cell-based; conditions: control RARs contracted with epinephrine 1 μM; FIGS. 2 and 3
Protocol: as §1
In vitro vasorelaxation: Thoracic aortae were removed following anesthesia with intraperitoneal injection of ketamine and xylazine (50 and 10 mg/kg, respectively). The paraadventetial tissue surrounding the vessel was carefully removed. Aortae were cut into rings of 4-5 mm and mounted onto the tissue path. The path buffer (Krebs-bicarbonate) was constantly gassed with carbogen and maintained at 37° C. The rings were preloaded under 2 g tension and equilibrated for 90 min with buffer changed every 15 min. After stabilization, the rings were contracted with epinephrine (1 μM). Commulative Concentration-Response Curves (CCRC) were constructed for NO-TEMPO, glyceryl trinitrate (GTN) and S-nitroso-N-acetylpenicillamine (SNAP). FIGS. 2 and 3 represent the vaso-relaxant effect of NO-TEMPO as compared to the conventional NO-donors GTN and SNAP.

Compound | tolerance induction in vivo [1] | tolerance induction in vitro (rat aortic rings (RARs) [2]) | vaso-relaxant effect on rings before and after exposure to GTN (rat aortic rings (RARs) [2]) | vaso-relaxant potency, control versus NO-TEMPO-pre-treated RARs (rat aortic rings (RARs) [2]) | tolerance of the hypotensive effect on MAP following successive administration [3] | increase in vascular cGMP ([4]; 1 mg i.v. versus basal) | cGMP content in aortic tissue ([4]; 1 mg i.v., aorta removed within thirty seconds, basal 46±10) [pmole/g tissue] | tolerance of the vascular cGMP effect ([4]; NO-TEMPO pre-treated rats) | effect on cGMP content of vascular tissue ([4]; control rats) | effect on vascular cGMP compared to GTN ([4]; control rats) | effect on vascular cGMP compared to GTN ([4]; control rats, listed as NO-TEMPO) | pIC50 value [5] | vaso-relaxant effect compared to conventional NO-donors GTN and SNAP (rat aortic rings (RARs) [6]) | mean arterial pressure (MAP) following injection ([3]; 1 mg injection through venous catheter, basal MAP 130±15) [mm Hg] | hypotensive effects in vivo compared to GTN and SNAP ([3]; rat, in vivo)
O=[N+]([O-])OCC(CO[N+](=O)[O-])O[N+](=O)[O-] [GTN, glyceryl trinitrate, reference compound] | does induce tolerance to itself and to NO-TEMPO | induces tolerance both to itself and to NO-TEMPO | development of GTN tolerance | no significant difference | attenuation to their effect on MAP develops |  |  |  |  |  |  |  |  |  | 
CC(=O)N[C@H](C(=O)O)C(C)(C)SN=O (racemic) [SNAP, S-nitroso-N-acetylpenicillamine, reference compound] |  |  |  |  | attenuation to their effect on MAP develops |  |  |  |  |  |  |  |  |  | 
CC1(C)CC(O[N+](=O)[O-])CC(C)(C)N1[O] [TEMPO-4-mononitrate, 4-Nitrato-2,2,6,6-tetramethylpiperidinyloxy, free radical] | does not induce tolerance either to itself or to GTN | does not induce tolerance neither to itself nor to GTN | significant difference | no significant difference | lack of tolerance development | 4-5 fold | 197±18 | lack of tolerance induction | significant increase | compared well with that of GTN | superior activity as compared to GTN | 2.89±0.03 | superiority of NO-TEMPO to both of these NO-donors | 60±10 | superiority of this drug to both GTN and SNAP
